Laboratory results taken from paper PMC9059125 (Journal of Medicinal Chemistry, 2022).
Read-outs that look alike come from different tables or passages of the source. Where a SMILES comes first, the peptide text is derived from it.

Tests used:
[1] = molecular target: T1, human oxytocin receptor (OTR) (Homo sapiens, UniProt P30559); assay: NIMH PDSP FLIPR-TETRA Ca2+-mobilization assay; type: cell-based; details: agonist, Ca2+ assay, NIMH PDSP, n ≥ 2; read-out: EC50 ± SEM OTR
T1 construct: NIMH PDSP (data provider)
T1 sequence (P30559 1-389): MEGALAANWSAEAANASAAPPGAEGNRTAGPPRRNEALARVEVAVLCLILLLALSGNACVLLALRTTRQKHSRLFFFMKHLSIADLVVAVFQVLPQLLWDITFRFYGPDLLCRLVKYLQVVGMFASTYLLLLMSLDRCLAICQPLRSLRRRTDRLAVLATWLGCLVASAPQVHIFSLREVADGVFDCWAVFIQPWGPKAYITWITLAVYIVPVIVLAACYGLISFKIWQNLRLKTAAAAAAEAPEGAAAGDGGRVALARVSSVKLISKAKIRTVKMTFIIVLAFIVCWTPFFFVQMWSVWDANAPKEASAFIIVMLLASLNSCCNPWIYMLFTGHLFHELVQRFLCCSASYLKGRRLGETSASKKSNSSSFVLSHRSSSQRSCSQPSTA

[2] = simulated gi fluid, pH 6.8
[3] = simulated gi fluid, pH 1.2

## [H][C@@]12CCCN1C(=O)[C@]1([H])CCCN1C(=O)[C@H]([C@@H](C)CC)NC(=O)[C@H](CO)NC(=O)[C@H](CCCCN)NC(=O)[C@H]([C@@H](C)O)NC(=O)[C@@H]1CSSC[C@H](NC(=O)[C@H]([C@@H](C)CC)NC2=O)C(=O)N[C@@H](Cc2ccc(O)cc2)C(=O)N[C@@H](Cc2ccccc2)C(=O)N[C@@H](CCC(N)=O)C(=O)N[C@@H](CC(N)=O)C(=O)N1 [SFTI-1(VP^[2-5])] (HELM PEPTIDE1{C.T.K.S.I.P.P.I.C.Y.F.Q.N}$PEPTIDE1,PEPTIDE1,1:R3-9:R3|PEPTIDE1,PEPTIDE1,1:R1-13:R2$$$V2.0)
[1]
  EC50: > 30 µM
[2]; pig
  t1/2 SIF: 12 ± 1 min

## [H][C@@]12CCCN1C(=O)[C@@H]1CSSC[C@H](NC(=O)CNC(=O)[C@H](CCCNC(=N)N)NC(=O)[C@]3([H])CCCN3C(=O)[C@@H]3CSSC[C@H](NC(=O)CNC(=O)[C@H](CCCNC(=N)N)NC2=O)C(=O)N[C@@H](Cc2ccc(O)cc2)C(=O)N[C@@H](Cc2ccccc2)C(=O)N[C@@H](CCC(N)=O)C(=O)N[C@@H](CC(N)=O)C(=O)N3)C(=O)N[C@@H](Cc2ccc(O)cc2)C(=O)N[C@@H](Cc2ccccc2)C(=O)N[C@@H](CCC(N)=O)C(=O)N[C@@H](CC(N)=O)C(=O)N1 [c(VP)2] (HELM PEPTIDE1{C.P.R.G.C.Y.F.Q.N.C.P.R.G.C.Y.F.Q.N}$PEPTIDE1,PEPTIDE1,1:R3-14:R3|PEPTIDE1,PEPTIDE1,5:R3-10:R3|PEPTIDE1,PEPTIDE1,1:R1-18:R2$$$V2.0)
[2]
  t1/2 SIF: <3 min

## [H][C@@]12CCCN1C(=O)[C@H](CC)NC(=O)[C@H](CC(N)=O)NC(=O)[C@H](CCC(N)=O)NC(=O)[C@H]([C@@H](C)CC)NC(=O)[C@H](Cc1ccc(O)cc1)NC(=O)[C@@H]1CSSC[C@H](NC(=O)CNC(=O)[C@H](CC(C)C)NC2=O)C(=O)N[C@@H]([C@@H](C)O)C(=O)N[C@@H](CCCCN)C(=O)N[C@@H](CO)C(=O)N[C@@H]([C@@H](C)CC)C(=O)N2CCC[C@@]2([H])C(=O)N2CCC[C@@]2([H])C(=O)N[C@@H]([C@@H](C)CC)C(=O)N1 [SFTI-1(OT^[2-9])] (HELM PEPTIDE1{[Abu].P.L.G.C.T.K.S.I.P.P.I.C.Y.I.Q.N}$PEPTIDE1,PEPTIDE1,5:R3-13:R3|PEPTIDE1,PEPTIDE1,1:R1-17:R2$$$V2.0)
[1]
  EC50: > 30 µM
[2]; pig
  t1/2 SIF: 3 ± 1 min

## [H][C@@]12CCCN1C(=O)[C@@H]1CSSC[C@H](NC(=O)CNC(=O)[C@H](CC(C)C)NC(=O)[C@]3([H])CCCN3C(=O)[C@@H]3CSSC[C@H](NC(=O)CNC(=O)[C@H](CCCNC(=N)N)NC2=O)C(=O)N[C@@H](Cc2ccc(O)cc2)C(=O)N[C@@H]([C@@H](C)CC)C(=O)N[C@@H](CCC(N)=O)C(=O)N[C@@H](CC(N)=O)C(=O)N3)C(=O)N[C@@H](Cc2ccc(O)cc2)C(=O)N[C@@H](Cc2ccccc2)C(=O)N[C@@H](CCC(N)=O)C(=O)N[C@@H](CC(N)=O)C(=O)N1 [c(OT-VP)] (HELM PEPTIDE1{C.P.L.G.C.Y.F.Q.N.C.P.R.G.C.Y.I.Q.N}$PEPTIDE1,PEPTIDE1,1:R3-14:R3|PEPTIDE1,PEPTIDE1,5:R3-10:R3|PEPTIDE1,PEPTIDE1,1:R1-18:R2$$$V2.0)
[2]
  t1/2 SIF: <3 min

## [H][C@@]12CCCN1C(=O)[C@@H]1CSSC[C@H](NC(=O)CNC(=O)[C@H](CC(C)C)NC(=O)[C@]3([H])CCCN3C(=O)[C@@H]3CSSC[C@H](NC(=O)CNC(=O)[C@H](CC(C)C)NC2=O)C(=O)N[C@@H](Cc2ccc(O)cc2)C(=O)N[C@@H]([C@@H](C)CC)C(=O)N[C@@H](CCC(N)=O)C(=O)N[C@@H](CC(N)=O)C(=O)N3)C(=O)N[C@@H](Cc2ccc(O)cc2)C(=O)N[C@@H]([C@@H](C)CC)C(=O)N[C@@H](CCC(N)=O)C(=O)N[C@@H](CC(N)=O)C(=O)N1 [c(OT)2] (HELM PEPTIDE1{C.P.L.G.C.Y.I.Q.N.C.P.L.G.C.Y.I.Q.N}$PEPTIDE1,PEPTIDE1,1:R3-14:R3|PEPTIDE1,PEPTIDE1,5:R3-10:R3|PEPTIDE1,PEPTIDE1,1:R1-18:R2$$$V2.0)
[2]
  t1/2 SIF: <3 min

## CC[C@H](C)[C@@H]1NC(=O)[C@H](CCC(=O)O)NC(=O)[C@@H]2CCCN2C(=O)[C@H](Cc2cnc[nH]2)NC(=O)[C@H](CC(=O)O)NC(=O)[C@H](Cc2ccc(O)cc2)NC(=O)[C@H](CC(N)=O)NC(=O)[C@@H]2CSSC[C@H](NC(=O)CN)C(=O)N[C@@H](CSSC[C@@H](C(N)=O)NC1=O)C(=O)N[C@@H](CO)C(=O)N[C@@H](CC(=O)O)C(=O)N1CCC[C@H]1C(=O)N[C@@H](CCCNC(=N)N)C(=O)N2 [Vc1.1, reference compound]
[3]
  t1/2 SGF: >1440 min
[2]; pig
  t1/2 SIF: 144 ± 12 min

## [H][C@@]12CCCN1C(=O)[C@H](CC)NC(=O)[C@H](CC(N)=O)NC(=O)[C@H](CCC(N)=O)NC(=O)[C@H](Cc1ccccc1)NC(=O)[C@H](Cc1ccc(O)cc1)NC(=O)[C@@H]1CSSC[C@H](NC(=O)CNC(=O)[C@H](CCCNC(=N)N)NC2=O)C(=O)N[C@@H]([C@@H](C)O)C(=O)N[C@@H](CCCCN)C(=O)N[C@@H](CO)C(=O)N[C@@H]([C@@H](C)CC)C(=O)N2CCC[C@@]2([H])C(=O)N2CCC[C@@]2([H])C(=O)N[C@@H]([C@@H](C)CC)C(=O)N1 [SFTI-1(VP^[2-9])] (HELM PEPTIDE1{[Abu].P.R.G.C.T.K.S.I.P.P.I.C.Y.F.Q.N}$PEPTIDE1,PEPTIDE1,5:R3-13:R3|PEPTIDE1,PEPTIDE1,1:R1-17:R2$$$V2.0)
[1]
  EC50: > 30 µM
[2]
  t1/2 SIF: <3 min

## [H][C@@]12CCCN1C(=O)[C@]1([H])CCCN1C(=O)[C@H]([C@@H](C)CC)NC(=O)[C@H](CO)NC(=O)[C@H](CCCCN)NC(=O)[C@H]([C@@H](C)O)NC(=O)[C@@H]1CSSC[C@H](NC(=O)[C@H]([C@@H](C)CC)NC2=O)C(=O)N[C@@H](Cc2ccc(O)cc2)C(=O)N[C@@H]([C@@H](C)CC)C(=O)N[C@@H](CCC(N)=O)C(=O)N[C@@H](CC(N)=O)C(=O)N1 [SFTI-1(OT^[2-5])] (HELM PEPTIDE1{C.T.K.S.I.P.P.I.C.Y.I.Q.N}$PEPTIDE1,PEPTIDE1,1:R3-9:R3|PEPTIDE1,PEPTIDE1,1:R1-13:R2$$$V2.0)
[1]
  EC50: > 30 µM
[2]; pig
  t1/2 SIF: 31 ± 3 min
